Assay results: the supplement of paper PMC10307832

Key:
Test in all cases: relative viability (nuclei count vs DMSO), 5 days (fraction); higher = more cells survive
[1] = test system: EMC-BAC-2
Method in brief: (§1)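 After 5 days of treatment, lung cancer cells in 1536-well plates were fixed and stained in a single step (final 0.05% Triton X-100, 1% formaldehyde, 1 ug/ml Hoechst) and their nuclei counted on 4× images. Treatment had been applied by pin tool the day after seeding as one drug alone or as a fixed anchor-drug dose with five library-drug doses (not always all listed) in √10 steps. Relative viability is the nuclei count of treated wells divided by that of vehicle wells, and values are medians of duplicate plates.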

[2] = test system: SK-MES-1
Method in brief: as §1

[3] = test system: NCI-H3122
Method in brief: as §1

[4] = test system: NCI-H727
Method in brief: as §1

[5] = test system: ABC-1
Method in brief: as §1

[6] = test system: NCI-H322M
Method in brief: as §1

[7] = test system: NCI-H2009
Method in brief: as §1

[8] = test system: LK-2
Method in brief: as §1

[9] = test system: HOP-62
Method in brief: as §1

[10] = test system: NCI-H1944
Method in brief: as §1

[11] = test system: NCI-H2228; conditions: first compound 0.08 µM
Method in brief: as §1

Work on O=c1cc(-c2cccc3c2Sc2ccccc2S3)oc(N2CCOCC2)c1 + CS(=O)(=O)N1CCN(Cc2cc3nc(-c4cccc5[nH]ncc45)nc(N4CCOCC4)c3s2)CC1 [Pictilisib] (partner 1 µM) yielded a relative viability ([1]; first compound 0.08 µM) of 0.535, a relative viability ([1]; first compound 0.253 µM) of 0.582 and a relative viability ([1]; first compound 0.8 µM) of 0.58. The relative viability ([1]; first compound 2.53 µM) was 0.548, the relative viability ([1]; first compound 8 µM) was 0.538 and the relative viability ([2]; first compound 0.08 µM) was 0.373. For the same compound, the relative viability ([2]; first compound 0.253 µM) was 0.396, the relative viability ([2]; first compound 0.8 µM) was 0.338 and the relative viability ([2]; first compound 2.53 µM) was 0.407. It also gave a relative viability ([2]; first compound 8 µM) of 0.474, a relative viability ([3]; first compound 0.08 µM) of 0.481 and a relative viability ([3]; first compound 0.253 µM) of 0.755. The relative viability ([3]; first compound 0.8 µM) was 0.452, the relative viability ([3]; first compound 2.53 µM) was 0.595 and the relative viability ([3]; first compound 8 µM) was 0.568. For the same compound, the relative viability ([4]; first compound 0.253 µM) was 0.442, the relative viability ([4]; first compound 2.53 µM) was 0.285 and the relative viability ([4]; first compound 8 µM) was 0.528. For the same compound, the relative viability ([5]; first compound 0.08 µM) was 0.62, the relative viability ([5]; first compound 0.253 µM) was 0.739 and the relative viability ([5]; first compound 0.8 µM) was 0.607. For the same compound, the relative viability ([5]; first compound 2.53 µM) was 0.666, the relative viability ([5]; first compound 8 µM) was 0.71 and the relative viability ([6]; first compound 0.08 µM) was 0.512. The relative viability ([6]; first compound 0.253 µM) was 0.553, the relative viability ([6]; first compound 0.8 µM) was 0.419 and the relative viability ([6]; first compound 2.53 µM) was 0.585. For the same compound, the relative viability ([6]; first compound 8 µM) was 0.471, the relative viability ([7]; first compound 0.08 µM) was 0.813 and the relative viability ([7]; first compound 0.253 µM) was 0.962. For the same compound, the relative viability ([7]; first compound 0.8 µM) was 0.968, the relative viability ([7]; first compound 2.53 µM) was 0.728 and the relative viability ([7]; first compound 8 µM) was 0.745. It also gave a relative viability ([8]; first compound 0.08 µM) of 0.608, a relative viability ([8]; first compound 0.253 µM) of 0.51 and a relative viability ([8]; first compound 0.8 µM) of 0.708. For the same compound, the relative viability ([8]; first compound 2.53 µM) was 0.503, the relative viability ([8]; first compound 8 µM) was 0.725 and the relative viability ([9]; first compound 0.08 µM) was 0.782. The relative viability ([9]; first compound 0.253 µM) was 1.02, the relative viability ([9]; first compound 0.8 µM) was 0.89 and the relative viability ([9]; first compound 2.53 µM) was 0.831. The relative viability ([9]; first compound 8 µM) was 0.779, the relative viability ([10]; first compound 0.08 µM) was 0.324 and the relative viability ([10]; first compound 0.253 µM) was 0.352. The relative viability ([10]; first compound 0.8 µM) was 0.29, the relative viability ([10]; first compound 8 µM) was 0.346 and the relative viability [11] was 0.434.
